Test results taken from publication PMC6025957, “Epidermal LysM receptor ensures robust symbiotic signalling in Lotus japonicus” (eLife, 2018).

Assays:
NFR1 kinase domain = target: T1, NFR1 kinase domain (Lotus japonicus, UniProt Q70KR7); assay: radioactive kinase assay, autoradiogram; format: biochemical; conditions: labelled compound ([gamma-32P]ATP); 100 µM ATP, MnCl2, MgCl2, HEPES pH 7, room temperature; NFR5 kinase domain as acceptor
T1 construct: intracellular kinase domain, pET-32 Ek/LIC, E. coli Rosetta 2, tag cleaved with TEV
T1 sequence (Q70KR7 254-623 limits assumed): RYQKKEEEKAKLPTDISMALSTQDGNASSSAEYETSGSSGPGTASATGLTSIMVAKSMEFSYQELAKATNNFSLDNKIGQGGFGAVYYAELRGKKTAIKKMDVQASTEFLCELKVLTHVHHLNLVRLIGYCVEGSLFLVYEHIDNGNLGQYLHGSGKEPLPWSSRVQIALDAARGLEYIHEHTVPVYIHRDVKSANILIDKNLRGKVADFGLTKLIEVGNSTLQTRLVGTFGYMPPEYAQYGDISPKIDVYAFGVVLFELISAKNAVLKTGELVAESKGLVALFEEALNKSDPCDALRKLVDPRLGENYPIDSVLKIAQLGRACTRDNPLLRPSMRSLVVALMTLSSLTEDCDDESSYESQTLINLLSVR

NFRe kinase domain = target: T2, NFRe kinase domain (Lotus japonicus, UniProt A8WHB6); assay: radioactive kinase assay, autoradiogram; format: biochemical; conditions: labelled compound ([gamma-32P]ATP); 100 µM ATP, MnCl2, MgCl2, HEPES pH 7, room temperature; autophosphorylation, myelin basic protein or NFR5 kinase domain as acceptor
T2 construct: gene nfr1c

AtCERK1 ectodomain = target: T3, AtCERK1 ectodomain (Arabidopsis thaliana, UniProt A8R7E6); assay: biolayer interferometry, steady-state; format: binding; conditions: labelled compound; biotinylated (GlcNAc)5 immobilised on streptavidin sensor, protein in solution; PBS pH 7.4, 500 mM NaCl, 0.01% Tween20
T3 construct: gene CERK1; ectodomain only (borders from reported crystal structure), gp67 signal peptide, C-terminal His6, Sf9 insect cells, glycosylated, ~35 kDa
T3 sequence (A8R7E6 24-232 limits assumed): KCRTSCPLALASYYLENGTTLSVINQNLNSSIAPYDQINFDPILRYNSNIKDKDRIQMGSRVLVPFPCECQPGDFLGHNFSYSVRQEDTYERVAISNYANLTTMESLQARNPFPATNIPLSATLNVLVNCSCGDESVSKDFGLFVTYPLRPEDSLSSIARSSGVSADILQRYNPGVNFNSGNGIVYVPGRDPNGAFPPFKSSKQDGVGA

T2 sequence (A8WHB6 entry or part of it): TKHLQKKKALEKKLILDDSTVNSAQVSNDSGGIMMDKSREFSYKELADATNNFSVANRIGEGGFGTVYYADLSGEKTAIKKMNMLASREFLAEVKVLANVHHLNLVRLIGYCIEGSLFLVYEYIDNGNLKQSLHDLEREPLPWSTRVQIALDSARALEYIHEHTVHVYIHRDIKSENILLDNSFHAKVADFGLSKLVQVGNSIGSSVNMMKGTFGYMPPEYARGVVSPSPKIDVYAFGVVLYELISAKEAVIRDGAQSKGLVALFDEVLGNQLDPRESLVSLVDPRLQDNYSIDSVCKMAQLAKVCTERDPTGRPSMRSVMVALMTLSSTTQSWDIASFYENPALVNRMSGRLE

Compound | radioactive kinase assay, autoradiogram (NFR1 kinase domain) | radioactive kinase assay, autoradiogram (NFRe kinase domain) | Kd (AtCERK1 ectodomain) [µM]
Nc1ncnc2c1ncn2[C@@H]1O[C@H](COP(=O)(O)OP(=O)(O)OP(=O)(O)O)[C@@H](O)[C@H]1O [ATP] | NFR1 kinase serves as positive control for NFR5 kinase transphosphorylation | NFRe kinase transphosphorylated the myelin basic protein (MBP) substrate and autophosphorylated | –
CC(=O)N[C@@H]1[C@@H](O)[C@H](O[C@@H]2O[C@H](CO)[C@@H](O[C@@H]3O[C@H](CO)[C@@H](O[C@@H]4O[C@H](CO)[C@@H](O[C@@H]5O[C@H](CO)[C@@H](O)[C@H](O)[C@H]5NC(C)=O)[C@H](O)[C@H]4NC(C)=O)[C@H](O)[C@H]3NC(C)=O)[C@H](O)[C@H]2NC(C)=O)[C@@H](CO)O[C@H]1O [CO5] | – | – | 59
